Laboratory results published in US20230167127A1, “COMPOUNDS AND THEIR USE IN THE TREATMENT OF BACTERIAL INFECTION” (Hoffmann-La Roche Inc., priority 2020, published 2023).
Where two headings read alike, the source gives them in different places.

Tested on: Escherichia coli ATCC 25922
Assay: 50% growth inhibitory concentration (IC50) determination, Iso-Sensitest broth dilution
Type: cell-based
Conditions: strain Escherichia coli ATCC 25922, 10-point broth dilution, optical density at 600 nm over 16 h, read-out: Escherichia coli growth inhibition IC50
Procedure: 50% Growth Inhibitory Concentration (IC50) Determination
The in vitro antimicrobial activity of the compounds was determined according to the following procedure:
The assay used a 10-point Iso-Sensitest broth dilution method to measure quantitatively the in vitro
ATCC 25922, Acinetobacter baumannii ATCC 17961, Klebsiella pneumoniae ATCC 43816 and Staphylococcus aureus ATCC 29213.
Stock compounds in DMSO were serially twofold diluted (e.g. range from 50 to 0.097 μM final concentration) in 384 wells microtiter plates and inoculated with 50 μL of the bacterial suspension in Iso-
ell of 50 μL/well. Microtiter plates were incubated at 35±2° C.
Bacterial cell growth was determined with the measurement of optical density at λ=600 nm each 20 minutes over a time course of 16 h.
Growth inhibition was calculated during the logarithmic growth of the bacterial cells with
Table 1 provides the 50% growth inhibitory concentrations (IC50) in micromoles per liter of the compounds of present invention obtained against the strain Escherichia coli ATCC 25922.

[1] = Escherichia coli, ATCC25922, 16 h

| IC50 [1] [nM] | IC50 [nM] | SMILES |
| --- | --- | --- |
| 196 | – | CNc1cc2c(c(C)n1)CC(CNCCC1CN(c3ccc4c(n3)NC(=O)CO4)C(=O)O1)C2 (centres unmarked) [Example 420, 6-[5-[2-[[1-Methyl-3-(methylamino)-6,7-dihydro-5H-cyclopenta[c]pyridin-6-yl]methylamino]ethyl]-2-oxo-1,3-oxazolidin-3-yl]-4H-pyrido[3,2-b][1,4]oxazin-3-one] |
| – | < 97.7 | Cc1ncc(F)c2c1CC(NCCCc1cn(-c3cnc4c(n3)NC(=O)CO4)c(=O)o1)C2 (single isomer, unassigned; enantiomer b) [Example 368, 6-[5-[3-[(4-Fluoro-1-methyl-6,7-dihydro-5H-cyclopenta[c]pyridin-6-yl)amino]propyl]-2-oxo-1,3-oxazol-3-yl]-4H-pyrazino[2,3-b][1,4]oxazin-3-one, Enantiomer B] |
| < 97.7 | – | NCCOc1ccc2c(c1Cl)CC(NCCCC1CN(c3ccc4c(n3)NC(=O)CO4)C(=O)O1)C2 (centres unmarked) [Example 118, 6-[5-[3-[[5-(2-aminoethoxy)-4-chloro-2,3-dihydro-1H-inden-2-yl]amino]propyl]-2-oxo-1,3-oxazolidin-3-yl]-4H-pyrido[3,2-b][1,4]oxazin-3-one; formic acid] |
| < 97.7 | – | NC1(COc2cc(F)c3c(c2)CC(CN2CCC4(CC2)CN(c2cnc5c(n2)NC(=O)CO5)C(=O)O4)C3)CC1 (centres unmarked) [Example 257, 6-[8-[[6-[(1-Aminocyclopropyl)methoxy]-4-fluoro-2,3-dihydro-1H-inden-2-yl]methyl]-2-oxo-1-oxa-3,8-diazaspiro[4.5]decan-3-yl]-4H-pyrazino[2,3-b][1,4]oxazin-3-one; formic acid] |
| < 97.7 | – | N#Cc1cccc2c1CC(CN1CC(C3CN(c4cnc5c(n4)NC(=O)CO5)C(=O)O3)C1)C2 (centres unmarked) [Example 76, 2-[[3-[2-oxo-3-(3-oxo-4H-pyrazino[2,3-b][1,4]oxazin-6-yl)-1,3-oxazolidin-5-yl]azetidin-1-yl]methyl]-2,3-dihydro-1H-indene-4-carbonitrile; formic acid] |
| 668 | – | Cc1ncc(F)c2c1CC(NCC(O)CC1CN(c3cnc4c(n3)NC(=O)CO4)C(=O)O1)C2 (single isomer, unassigned; isomer c) [Example 315, 6-[2-Oxo-5-[3-[(4-fluoro-1-methyl-6,7-dihydro-5H-cyclopenta[c]pyridin-6-yl)amino]-2-hydroxypropyl]-1,3-oxazolidin-3-yl]-4H-pyrazino[2,3-b][1,4]oxazin-3-one; formic acid, Isomer C] |
| 885 | – | Cc1ncc(F)c2c1CC(NC1CC(C3CN(c4cnc5c(n4)NC(=O)CO5)C(=O)O3)C1)C2 (single isomer, unassigned; isomer a) [Example 328, 6-[5-[3-[(4-fluoro-1-methyl-6,7-dihydro-5H-cyclopenta[c]pyridin-6-yl)amino]cyclobutyl]-2-oxo-1,3-oxazolidin-3-yl]-4H-pyrazino[2,3-b][1,4]oxazin-3-one, Isomer A] |
| 304 | – | Cc1ccnc2c1CC(CNCCC1CN(c3ccc4c(n3)NC(=O)CO4)C(=O)O1)C2 (centres unmarked) [Example 89, 6-[5-[2-[(4-methyl-6,7-dihydro-5H-cyclopenta[b]pyridin-6-yl)methylamino]ethyl]-2-oxo-1,3-oxazolidin-3-yl]-4H-pyrido[3,2-b][1,4]oxazin-3-one] |
| – | 679 | Cc1ncc(F)c2c1CC(CN1CCC3(CN(c4ccc5c(n4)NC(=O)CO5)C(=O)O3)C(CN)C1)C2 (racemic) [Example 251, 6-[rac-5,6-cis-6-(Aminomethyl)-8-[(4-fluoro-1-methyl-6,7-dihydro-5H-cyclopenta[c]pyridin-6-yl)methyl]-2-oxo-1-oxa-3,8-diazaspiro[4.5]decan-3-yl]-4H-pyrido[3,2-b][1,4]oxazin-3-one] |
| 98 | – | CNC(=O)COc1ccc2c(c1Cl)CC(CNCCC1CN(c3cnc4c(n3)NC(=O)CO4)C(=O)O1)C2 (centres unmarked) [Example 109, 2 2-[[4-chloro-2-[[2-[2-oxo-3-(3-oxo-4H-pyrazino[2,3-b][1,4]oxazin-6-yl)-1,3-oxazolidin-5-yl]ethylamino]methyl]-2,3-dihydro-1H-inden-5-yl]oxy]-N-methylacetamide] |
| < 97.7 | – | Cc1ncc(F)c2c1CC(NCCCc1cn(-c3cnc4c(n3)NC(=O)CO4)c(=O)o1)C2 (single isomer, unassigned; enantiomer a) [Example 367, 6-[5-[3-[(4-Fluoro-1-methyl-6,7-dihydro-5H-cyclopenta[c]pyridin-6-yl)amino]propyl]-2-oxo-1,3-oxazol-3-yl]-4H-pyrazino[2,3-b][1,4]oxazin-3-one, Enantiomer A] |
| < 97.7 | – | Cc1cnc(C)c2c1CC(CNCCC1CN(c3cnc4c(n3)NC(=O)CO4)C(=O)O1)C2 (centres unmarked) [Example 268, 6-[5-[2-[(1,4-Dimethyl-6,7-dihydro-5H-cyclopenta[c]pyridin-6-yl)methylamino]ethyl]-2-oxo-1,3-oxazolidin-3-yl]-4H-pyrazino[2,3-b][1,4]oxazin-3-one] |
| < 97.7 | – | Cc1nc(C#N)c2c(c1F)CC(CNCCC1CN(c3cnc4c(n3)NC(=O)CO4)C(=O)O1)C2 (centres unmarked) [Example 363, 4-fluoro-3-methyl-6-[[2-[2-oxo-3-(3-oxo-4H-pyrazino[2,3-b][1,4]oxazin-6-yl)-1,3-oxazolidin-5-yl]ethylamino]methyl]-6,7-dihydro-5H-cyclopenta[c]pyridine-1-carbonitrile; formic acid] |

The remaining lines, values behind:

| SMILES | IC50 [1] [nM] | IC50 [nM] |
| --- | --- | --- |
| N#Cc1cccc2c1C(N)C(CNCCC1CN(c3ccc4c(n3)NC(=O)CS4)C(=O)O1)C2 (racemic) [Example 157, rac-2,3-trans-3-amino-2-[[2-[2-oxo-3-(3-oxo-4H-pyrido[3,2-b][1,4]thiazin-6-yl)-1,3-oxazolidin-5-yl]ethylamino]methyl]-2,3-dihydro-1H-indene-4-carbonitrile] | < 97.7 | – |
| NC1(COc2cc(F)c3c(c2F)CC(CNCCC2CN(c4ccc5c(n4)NC(=O)CO5)C(=O)O2)C3)CC1 (centres unmarked) [Example 409, 6-[5-[2-[[5-[(1-aminocyclopropyl)methoxy]-4,7-difluoro-2,3-dihydro-1H-inden-2-yl]methylamino]ethyl]-2-oxo-1,3-oxazolidin-3-yl]-4H-pyrido[3,2-b][1,4]oxazin-3-one; formic acid] | < 97.7 | – |
| N#Cc1cccc2c1CC(NC1CCC3(CN(c4ccc5c(n4)NC(=O)CO5)C(=O)O3)C(N)C1)C2 (racemic) [Example 166, 2-[[rac-5,6-cis-5,8-trans-6-amino-2-oxo-3-(3-oxo-4H-pyrido[3,2-b][1,4]oxazin-6-yl)-1-oxa-3-azaspiro[4.5]decan-8-yl]amino]-2,3-dihydro-1H-indene-4-carbonitrile] | – | 172 |
| NC1CC(NCC2Cc3ccnc(Cl)c3C2)CCC12CN(c1ccc3c(n1)NC(=O)CO3)C(=O)O2 (racemic) [Example 206, 6-[rac-5,6-cis-5,8-trans-6-amino-8-[(1-chloro-6,7-dihydro-5H-cyclopenta[c]pyridin-6-yl)methylamino]-2-oxo-1-oxa-3-azaspiro[4.5]decan-3-yl]-4H-pyrido[3,2-b][1,4]oxazin-3-one] | 1160 | – |
| Cc1nnc(C)c2c1CC(CNCCC1CN(c3ccc4c(n3)NC(=O)CS4)C(=O)O1)C2 (centres unmarked) [Example 285, 5-[2-[(1,4-dimethyl-6,7-dihydro-5H-cyclopenta[d]pyridazin-6-yl)methylamino]ethyl]-3-(3-oxo-4H-pyrido[3,2-b][1,4]thiazin-6-yl)-1,3-oxazolidin-2-one] | 925 | – |
| NC1c2cccc(F)c2CC1CNCCC1CN(c2ccc3c(n2)NC(=O)CS3)C(=O)O1 (racemic) [Example 165, 5-[2-[(rac-1,2-trans-1-amino-4-fluoro-2,3-dihydro-1H-inden-2-yl)methylamino]ethyl]-3-(3-oxo-4H-pyrido[3,2-b][1,4]thiazin-6-yl)-1,3-oxazolidin-2-one; formic acid] | < 97.7 | – |
| CNC(=O)COc1cc(Cl)c2c(c1)C(N)C(CNCCC1CN(c3ccc4c(n3)NC(=O)CO4)C(=O)O1)C2 (racemic) [Example 400, N-methyl-2-[[rac-2,3-trans-3-amino-7-chloro-2-[[2-[2-oxo-3-(3-oxo-4H-pyrido[3,2-b][1,4]oxazin-6-yl)-1,3-oxazolidin-5-yl]ethylamino]methyl]-2,3-dihydro-1H-inden-5-yl]oxy]acetamide; formic acid] | 365 | – |
| N#Cc1cc(OC2CNC2)cc2c1CC(CNCCC1CN(c3ccc4c(n3)NC(=O)CO4)C(=O)O1)C2 (centres unmarked) [Example 190, 6-(azetidin-3-yloxy)-2-[[2-[2-oxo-3-(3-oxo-4H-pyrido[3,2-b][1,4]oxazin-6-yl)-1,3-oxazolidin-5-yl]ethylamino]methyl]-2,3-dihydro-1H-indene-4-carbonitrile; 2,2,2-trifluoroacetic acid] | < 97.7 | – |
| COc1cc2c(c(Cl)n1)CC(CNCCC1CN(c3ccc4c(n3)NC(=O)CO4)C(=O)O1)C2 (centres unmarked) [Example 49, 6-[5-[2-[(1-chloro-3-methoxy-6,7-dihydro-5H-cyclopenta[c]pyridin-6-yl)methylamino]ethyl]-2-oxo-1,3-oxazolidin-3-yl]-4H-pyrido[3,2-b][1,4]oxazin-3-one] | 193 | – |
| Cc1cnc(-c2nc(OCC3(N)CC3)c(C)c3c2CC(CNCCC2CN(c4ccc5c(n4)NC(=O)CO5)C(=O)O2)C3)s1 (centres unmarked) [Example 216, 6-[5-[2-[[3-[(1-aminocyclopropyl)methoxy]-4-methyl-1-(5-methyl-1,3-thiazol-2-yl)-6,7-dihydro-5H-cyclopenta[c]pyridin-6-yl]methylamino]ethyl]-2-oxo-1,3-oxazolidin-3-yl]-4H-pyrido[3,2-b][1,4]oxazin-3-one] | 211 | – |
